Source: ChEMBL document CHEMBL3351420, “Liver X receptor (LXR) partial agonists: biaryl pyrazoles and imidazoles displaying a preference for LXRβ” (Bioorg Med Chem Lett, 2015)
Active and inactive are the calls of the source. No cut-off for these calls is given here.

Experiments:
[1] = molecular target: Retinoic acid receptor RXR-alpha/oxysterols receptor LXR-alpha (Homo sapiens, UniProt Q13133); experiment: Binding affinity to LXRalpha-RXRalpha heterodimer (unknown origin) expressed in insect cells by scintillation proximity assay
[2] = molecular target: Retinoic acid receptor RXR-alpha/oxysterols receptor LXR-beta (Homo sapiens, UniProt P55055); experiment: Binding affinity to LXRbeta-RXRalpha heterodimer (unknown origin) expressed in insect cells by scintillation proximity assay
[3] = molecular target: T1, Oxysterols receptor LXR-alpha (Homo sapiens, UniProt Q13133); experiment: Transactivation of LXRalpha (unknown origin) expressed in CV1 cells by luciferase reporter gene assay; type: cell-based, CV-1
T1 sequence (Q13133 whole entry): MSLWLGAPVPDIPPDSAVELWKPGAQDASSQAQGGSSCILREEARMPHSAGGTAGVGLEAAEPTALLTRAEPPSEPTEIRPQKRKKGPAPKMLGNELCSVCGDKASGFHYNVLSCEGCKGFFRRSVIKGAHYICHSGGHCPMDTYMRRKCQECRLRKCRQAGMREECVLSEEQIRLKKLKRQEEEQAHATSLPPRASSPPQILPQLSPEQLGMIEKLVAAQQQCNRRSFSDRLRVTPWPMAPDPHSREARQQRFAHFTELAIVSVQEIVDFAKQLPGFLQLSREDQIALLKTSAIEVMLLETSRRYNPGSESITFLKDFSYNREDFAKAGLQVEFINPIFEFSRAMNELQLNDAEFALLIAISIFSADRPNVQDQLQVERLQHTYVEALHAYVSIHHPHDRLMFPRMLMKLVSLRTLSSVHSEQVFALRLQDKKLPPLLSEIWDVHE

[4] = molecular target: T2, Oxysterols receptor LXR-beta (Homo sapiens, UniProt P55055); experiment: Transactivation of LXRbeta (unknown origin) expressed in CV1 cells by luciferase reporter gene assay; type: cell-based, CV-1
T2 sequence (P55055 whole entry): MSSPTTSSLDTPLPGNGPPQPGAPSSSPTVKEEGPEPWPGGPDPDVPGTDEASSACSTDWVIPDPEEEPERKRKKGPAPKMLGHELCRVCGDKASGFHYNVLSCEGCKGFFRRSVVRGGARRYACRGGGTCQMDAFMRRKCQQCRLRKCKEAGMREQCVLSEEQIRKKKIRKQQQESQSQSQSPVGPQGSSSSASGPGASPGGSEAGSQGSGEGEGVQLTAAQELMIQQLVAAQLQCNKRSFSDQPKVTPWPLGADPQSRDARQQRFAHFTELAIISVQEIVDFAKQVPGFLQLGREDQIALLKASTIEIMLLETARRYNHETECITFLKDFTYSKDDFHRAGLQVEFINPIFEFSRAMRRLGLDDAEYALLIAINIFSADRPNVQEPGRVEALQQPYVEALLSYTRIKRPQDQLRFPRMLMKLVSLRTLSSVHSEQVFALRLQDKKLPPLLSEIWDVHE

Liver X receptor [5] = molecular target: T3, Liver X receptor (Homo sapiens, UniProt Q13133+P55055); experiment: Transactivation of LXR (unknown origin) expressed in human HeLa cells by ABCA1 LXREx3 reporter assay; type: cell-based
T3 sequence (Q13133 whole entry): T1 sequence (Q13133 whole entry)
T3 sequence (P55055 whole entry): T2 sequence (P55055 whole entry)

Mus musculus [6] = experiment: Elevation of hepatic triglyceride in C57BL/6 mouse at 30 mg/kg for 7 days measured 24 hrs post last dose relative to control; type: ADME, organism-based; set-up: dose 30 mg/kg; settings: in vivo
Mus musculus [7] = experiment: Induction of SREBP1c mRNA in C57BL/6 mouse liver at 30 mg/kg for 7 days measured 24 hrs post last dose relative to control; type: organism-based; set-up: dose 30 mg/kg; settings: C57BL/6, 24 h, read-out: FC
Liver X receptor [8] = molecular target: T3, Liver X receptor; experiment: Transactivation of LXR in human whole blood assessed as induction of ABCA1 after 4 hrs by SYBR-Green quantitative PCR analysis
[9] = Plasma concentration in mouse at 30 mg/kg, po measured at 4 hrs post dose; type: ADME, organism-based; set-up: dose 30 mg/kg, route oral
[10] = Plasma concentration in mouse at 30 mg/kg, po measured at 24 hrs post dose; type: ADME, organism-based; set-up: dose 30 mg/kg, route oral
[11] = Drug uptake in mouse liver at 30 mg/kg, po measured at 24 hrs post dose; type: ADME, organism-based; set-up: dose 30 mg/kg, route oral; settings: read-out: Drug uptake
[12] = molecular target: Liver X receptor (Homo sapiens) (UniProt Q13133+P55055); experiment: Transactivation of LXR in human whole blood assessed as induction of ABCA1 after 4 hrs by SYBR-Green quantitative PCR analysis relative to 1-(2,4-difluorobenzyl)-2-oxo-6-(4-phenoxyphenyl)-4-(trifluoromethyl)-1,2-dihydropyridine-3-carbonitrile
Mus musculus [13] = experiment: Induction of ABCA1 mRNA induction in C57BL/6 mouse blood cells at 3 to 30 mg/kg for 7 days measured 5 hrs post last dose relative to control; type: functional, organism-based
Mus musculus [14] = experiment: Induction of ABCG1 mRNA induction in C57BL/6 mouse blood cells at 3 to 30 mg/kg for 7 days measured 5 hrs post last dose relative to control; type: functional, organism-based
Mus musculus [15] = experiment: Elevation of plasma triglyceride in C57BL/6 mouse at 3 to 10 mg/kg for 7 days measured 24 hrs post last dose relative to control; type: ADME, organism-based; set-up: dose 3-10 mg/kg; settings: in vivo
Mus musculus [16] = experiment: Elevation of hepatic triglyceride in C57BL/6 mouse at 3 to 30 mg/kg for 7 days measured 24 hrs post last dose relative to control; type: ADME, organism-based; set-up: dose 3-30 mg/kg; settings: in vivo
Mus musculus [17] = experiment: Elevation of plasma triglyceride in C57BL/6 mouse at 30 mg/kg for 7 days measured 24 hrs post last dose relative to control; type: ADME, organism-based; set-up: dose 30 mg/kg; settings: in vivo
Mus musculus [18] = experiment: Induction of SREBP1c mRNA in C57BL/6 mouse liver at 10 mg/kg for 7 days measured 24 hrs post last dose relative to control; type: organism-based; set-up: dose 10 mg/kg; settings: C57BL/6, 24 h, read-out: FC
[19] = Plasma concentration in C57BL/6 mouse at 3 mg/kg, po measured at 5 hrs post dose; type: ADME, organism-based; set-up: dose 3 mg/kg, route oral
[20] = Plasma concentration in C57BL/6 mouse at 10 mg/kg, po measured at 5 hrs post dose; type: ADME, organism-based; set-up: dose 10 mg/kg, route oral
[21] = Plasma concentration in C57BL/6 mouse at 30 mg/kg, po measured at 5 hrs post dose; type: ADME, organism-based; set-up: dose 30 mg/kg, route oral

Sequence of Retinoic acid receptor RXR-alpha/oxysterols receptor LXR-alpha (P19793 whole entry, one chain of several): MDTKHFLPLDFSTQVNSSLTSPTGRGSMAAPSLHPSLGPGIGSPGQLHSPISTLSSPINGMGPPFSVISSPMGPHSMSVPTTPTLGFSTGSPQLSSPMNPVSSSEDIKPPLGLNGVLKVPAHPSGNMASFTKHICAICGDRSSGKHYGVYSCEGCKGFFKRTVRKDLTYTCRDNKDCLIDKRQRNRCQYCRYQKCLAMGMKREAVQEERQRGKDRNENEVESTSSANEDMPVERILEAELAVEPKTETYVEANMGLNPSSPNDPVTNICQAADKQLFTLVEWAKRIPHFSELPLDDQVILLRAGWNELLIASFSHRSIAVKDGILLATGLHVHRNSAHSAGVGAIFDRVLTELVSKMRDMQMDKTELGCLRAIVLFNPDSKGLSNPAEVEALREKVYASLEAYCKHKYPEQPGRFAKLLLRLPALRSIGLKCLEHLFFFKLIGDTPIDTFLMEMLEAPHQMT
Sequence of Retinoic acid receptor RXR-alpha/oxysterols receptor LXR-beta (P19793 whole entry, one chain of several): as above

SMILES | Ki [1] [µM] | Ki [2] [µM] | EC50 [3] [µM] | EC50 [4] [µM] | EC50 (Liver X receptor [5]) [µM] | EC50 (Liver X receptor [8]) [µM] | concentration at 4 h [9] [nM] | concentration at 24 h [10] [nM] | concentration at 24 h [11] [nM] | Efficacy [12] [%] | also measured
Cc1cc(CC(=O)O)ccc1-c1ccc(-c2cc(C(F)(F)F)c(C#N)c(=O)n2Cc2ccc(F)cc2F)s1 | 0.036 | 0.009 | 0.57 | 0.32 | 0.04 |  |  |  |  |  | fold change (FC) (Mus musculus [6]): 4.8; fold induction at 30 mg/kg (Mus musculus [7]): 7.7
COC(=O)c1cc(-c2ccc(-c3cccc(S(C)(=O)=O)c3)s2)n(-c2ccccc2Cl)n1 | 0.15 | 0.01 | 0.065 | 0.064 | 0.31 |  |  |  |  |  | 
CS(=O)(=O)c1cccc(-c2ccc(-c3cc(C(F)(F)F)nn3Cc3ccc(F)cc3F)s2)c1 | 0.02 | 0.007 | 0.018 | 0.014 |  |  |  |  |  |  | 
CC(C)(O)c1cn(-c2ccc(-c3cccc(S(C)(=O)=O)c3)cc2)c(-c2ccccc2Cl)n1 | 1.6 | 0.059 | > 10 | 0.6 | 0.14 | 8.3 | 14000 | 2000 | 13200 | 31 | 
CC(C)(O)c1cc(-c2ccc(-c3cccc(S(C)(=O)=O)c3)s2)n(-c2ccccc2Cl)n1 | 1.5 | 0.083 | 0.54 | 0.62 | 0.8 |  |  |  |  |  | 
CC(C)(O)c1cn(-c2ccc(-c3cccc(S(C)(=O)=O)c3)cc2)c(C(C)(C)c2ccccc2Cl)n1 [BMS-779788] | 0.068 | 0.014 | 0.23 | 0.25 | 0.033 | 1.2 | 5400 | 40 | < 50 | 55 | Activity (Mus musculus [13]): Active; Activity (Mus musculus [14]): Active; Activity (Mus musculus [15]): Non-toxic; Activity (Mus musculus [16]): Non-toxic; Activity (Mus musculus [17]): 74%; Activity (Mus musculus [6]): Non-toxic; fold induction at 10 mg/kg (Mus musculus [18]): 2.7; fold induction at 30 mg/kg (Mus musculus [7]): 3.5; concentration at 5 h [19]: 50 nM; concentration at 5 h [20]: 200 nM; concentration at 5 h [21]: 2000 nM
N#Cc1c(C(F)(F)F)cc(-c2ccc(Oc3ccccc3)cc2)n(Cc2ccc(F)cc2F)c1=O | 0.026 | 0.009 | 0.02 | 0.02 | 0.007 |  |  |  |  |  | 
CC(C)(O)c1cn(-c2ccc(-c3cccc(S(C)(=O)=O)c3)cc2)c(Cc2ccccc2Cl)n1 | 0.025 | 0.001 | 0.085 | 0.066 | 0.012 | 3.2 | 1300 | 400 | 1500 | 62 | 
CC(C)(O)c1cn(-c2ccc(-c3cccc(S(C)(=O)=O)c3)cc2)c(Cc2ccccc2C(F)(F)F)n1 | 0.066 | 0.007 | 0.2 | 0.14 | 0.027 | 3.1 | 6000 | 20 | 200 | 30 | 
CC(C)(O)c1cn(-c2ccc(-c3cccc(S(C)(=O)=O)c3)cc2)c(-c2c(Cl)cccc2Cl)n1 | 2.5 | 0.054 | > 10 | 0.67 | 0.14 | 7 | 18500 | 600 | 4400 | 38 | 
CS(=O)(=O)c1cccc(-c2ccc(-c3cc(C(F)(F)F)nn3-c3ccccc3C(F)(F)F)s2)c1 | 0.24 | 0.016 | 0.12 | 0.068 | 0.008 |  | 6900 | 4100 |  |  | 
CS(=O)(=O)c1cccc(-c2ccc(-c3cc(C(F)(F)F)nn3-c3ccccc3Cl)cc2)c1 | 0.18 | 0.013 | 0.22 | 0.049 | 0.013 | 0.48 | 600 | 400 | 7800 | 49 | 
CS(=O)(=O)c1cccc(-c2cccc(-c3cc(C(F)(F)F)nn3-c3ccccc3Cl)c2)c1 | 0.3 | 0.031 | 0.32 | 0.23 | 0.038 |  | 6600 | 300 | 1000 |  | 
CS(=O)(=O)c1cccc(-c2ccc(-c3cc(C(F)(F)F)nn3-c3ccccc3Cl)s2)c1 | 0.068 | 0.012 | 0.14 | 0.11 | 0.009 |  |  |  |  |  | 
CS(=O)(=O)c1cccc(-c2ccc(-n3cc(C(F)(F)F)nc3-c3ccccc3Cl)cc2)c1 | 0.061 | 0.011 | 0.052 | 0.061 | 0.005 |  | 1200 | 2300 | 32000 |  | 
CS(=O)(=O)c1cccc(-c2ccc(-c3cc(C(F)(F)F)c(C#N)c(=O)n3Cc3ccc(F)cc3F)s2)c1 | 0.011 | 0.011 | 0.004 | 0.002 |  |  |  |  |  |  | 
